# Experimental data taken from the supplement of paper PMC11061612.
# Key:
# Assay in all cases: Bliss excess, mean over the matrix (fraction); higher = more synergy
# [1] = test system: COR-L311 (Small Cell Lung Carcinoma)
# Procedure, shortened: (§1)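 Cell lines in DMEM/F12 or RPMI with 10% FBS were plated in 1536-well plates, held 24 hours at 37°C, 5% CO2, then given two-drug dose matrices for 72 hours (DMSO typically 0.2%). Viability was read by CellTiter-Glo 2.0 luminescence and scaled as inhibition from 0 (vehicle wells) to 1 (blank wells). Combination Emax is the second-highest inhibition in the matrix; Bliss excess is observed combination effect minus expected EA + EB − EA·EB, EA and EB being single-agent effects.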
# Hs-445 (Non-Cancerous) = test system: Hs-445 (Non-Cancerous)
# Procedure, shortened: as §1
# [2] = test system: JSC-1 (B-Cell Non-Hodgkin's Lymphoma)
# Procedure, shortened: as §1
# [3] = test system: A3-KAW (B-Cell Non-Hodgkin's Lymphoma)
# Procedure, shortened: as §1
# [4] = test system: NCI-H64 (Small Cell Lung Carcinoma)
# Procedure, shortened: as §1
# [5] = test system: NCI-H2066 (Squamous Cell Lung Carcinoma)
# Procedure, shortened: as §1
# [6] = test system: ONS-76 (Other Solid Carcinomas)
# Procedure, shortened: as §1
# FU97 (Gastric Carcinoma) = test system: FU97 (Gastric Carcinoma)
# Procedure, shortened: as §1
# [7] = test system: CAL-29 (Bladder Carcinoma)
# Procedure, shortened: as §1
# [8] = test system: MDST8 (Colorectal Carcinoma)
# Procedure, shortened: as §1
# [9] = test system: A549 (Lung Adenocarcinoma)
# Procedure, shortened: as §1
# [10] = test system: COLO-320-HSR (Colorectal Carcinoma)
# Procedure, shortened: as §1
# [11] = test system: CAPAN-2 (Pancreatic Carcinoma)
# Procedure, shortened: as §1
# [12] = test system: SK-MG-1 (Low Grade Glioma)
# Procedure, shortened: as §1
# [13] = test system: NCI-H1581 (Non-Small Cell Lung Carcinoma)
# Procedure, shortened: as §1
# [14] = test system: NCI-H1693 (Lung Adenocarcinoma)
# Procedure, shortened: as §1
# [15] = test system: NCI-H1650 (Lung Adenocarcinoma)
# Procedure, shortened: as §1
# PA-1 (Ovarian Carcinoma) = test system: PA-1 (Ovarian Carcinoma)
# Procedure, shortened: as §1
# IGR-37 (Melanoma) = test system: IGR-37 (Melanoma)
# Procedure, shortened: as §1
# [16] = test system: ECC10 (Gastric Carcinoma)
# Procedure, shortened: as §1
Structure (SMILES),Bliss excess [1],Bliss excess (Hs-445 (Non-Cancerous)),Bliss excess [2],Bliss excess [3],Bliss excess [4],Bliss excess [5],Bliss excess [6],Bliss excess (FU97 (Gastric Carcinoma)),Bliss excess [7],Bliss excess [8],Bliss excess [9],Bliss excess [10],Bliss excess [11],Bliss excess [12],Bliss excess [13],Bliss excess [14],Bliss excess [15],Bliss excess (PA-1 (Ovarian Carcinoma)),Bliss excess (IGR-37 (Melanoma)),Bliss excess [16]
"CC1(C)CCC(CN2CCN(c3ccc(C(=O)NS(=O)(=O)c4ccc(NCC5CCOCC5)c([N+](=O)[O-])c4)c(Oc4cnc5[nH]ccc5c4)c3)CC2)=C(c2ccc(Cl)cc2)C1 [Venetoclax] + CN(C)CCCOc1ccc(-c2ccc3ncc4c(c3c2)n(C2CCOCC2)c(=O)n4C)cn1 [AZD0156] (first compound max 1 µM, 7x7, partner max 1 µM)",0.0654,-0.035,0.0102,-0.0485,-0.0149,-0.0439,-0.054,-0.0293,-0.0219,-0.038,-0.0586,0.0114,-0.0191,-0.0527,0.0054,-0.0123,-0.0361,0.0367,-0.0039,0.0243
"Cn1cnc2c(F)c(Nc3ccc(Br)cc3Cl)c(C(=O)NOCCO)cc21 [Selumetinib] + C=CCn1c(=O)c2cnc(Nc3ccc(N4CCN(C)CC4)cc3)nc2n1-c1cccc(C(C)(C)O)n1 [AZD1775] (first compound max 10 µM, partner max 1 µM)",-0.0518,-0.133,-0.0432,-0.0575,-0.005,-0.0776,-0.0452,0.0052,0.0074,-0.0165,-0.0741,-0.0657,0.033,-0.106,0.0258,-0.0092,-0.0792,-0.001,0.0122,-0.0058
"CS(=O)(=O)CCNCc1ccc(-c2ccc3ncnc(Nc4ccc(OCc5cccc(F)c5)c(Cl)c4)c3c2)o1 [Lapatinib] + C[C@@H](Oc1cc(-c2cnn(C3CCNCC3)c2)cnc1N)c1c(Cl)ccc(F)c1Cl [Crizotinib] (first compound max 10 µM, 7x7, partner max 10 µM)",-0.0024,0.0147,-0.0008,0.0316,-0.0564,-0.0066,-0.0667,-0.0144,0.0215,-0.0095,-0.0606,-0.0416,-0.0341,-0.0513,0.0208,-0.0069,0.0253,0.0128,-0.0432,-0.0434
"Cc1nc(Nc2ncc(C(=O)Nc3c(C)cccc3Cl)s2)cc(N2CCN(CCO)CC2)n1 [Dasatinib] + CC(=O)Nc1cccc(-n2c(=O)n(C3CC3)c(=O)c3c(Nc4ccc(I)cc4F)n(C)c(=O)c(C)c32)c1 [Trametinib] (first compound max 2 µM, 7x7, partner max 1 µM)",-0.0295,-0.0873,-0.117,0.0863,-0.0498,-0.0033,-0.0206,0.0039,0.0133,-0.106,0.0224,-0.0492,0.0749,-0.0654,-0.0416,0.0432,-0.0167,0.013,-0.121,-0.0334
"CN(CCO)CC[C@H](CSc1ccccc1)Nc1ccc(S(=O)(=O)NC(=O)c2ccc(N3CCC([C@@H](O)c4ccccc4-c4ccc(Cl)cc4)CC3)cc2)cc1S(=O)(=O)C(F)(F)F [AZD4320] + Cn1cnc2c(F)c(Nc3ccc(Br)cc3Cl)c(C(=O)NOCCO)cc21 [Selumetinib] (first compound max 1 µM, 7x7, partner max 3 µM)",-0.0034,0.0606,0.0044,0.0747,0.0427,0.0432,0.019,-0.011,0.0826,0.0763,0.0226,0.0102,0.0819,0.102,0.0408,0.0031,0.0245,0.144,-0.0039,0.027
"CC1(C)CCC(CN2CCN(c3ccc(C(=O)NS(=O)(=O)c4ccc(NCC5CCOCC5)c([N+](=O)[O-])c4)c(Oc4cnc5[nH]ccc5c4)c3)CC2)=C(c2ccc(Cl)cc2)C1 [Venetoclax] + C[C@@H]1COCCN1C2=NC(=NC(=C2)C3(CC3)[S@](=N)(=O)C)C4=C5C=CNC5=NC=C4 [AZD6738] (first compound max 1 µM, 7x7, partner max 10 µM)",-0.0291,0.0577,-0.0148,0.008,-0.0054,-0.0098,-0.0531,-0.0455,-0.018,-0.0025,-0.0465,-0.0076,-0.0439,-0.0553,0.007,-0.0147,-0.0605,-0.006,0.0453,-0.0132
"C=CCn1c(=O)c2cnc(Nc3ccc(N4CCN(C)CC4)cc3)nc2n1-c1cccc(C(C)(C)O)n1 [AZD1775] + O=C(c1cc(Cc2n[nH]c(=O)c3ccccc23)ccc1F)N1CCN(C(=O)C2CC2)CC1 [Olaparib] (first compound max 1 µM, partner max 10 µM)",-0.0848,0.0156,-0.0434,0.0183,-0.0547,-0.0407,-0.0826,-0.148,-0.0722,-0.0308,-0.0667,-0.0404,-0.0576,0.0058,-0.0262,-0.0137,-0.0643,-0.0037,-0.0132,-0.019
